In patent US20130315920A1, “Cross Protective Epitopes of Aspergillus Fumigatus and Candida Albicans” (Cell Medica Limited, priority 2010, published 2013):

What was measured:
[1] = system: A. flavus, A. nidulans, A. niger, A. terreus, C. glabrata and C. krusei; assay: Cross-reactivity of T-cell clones to other Aspergillus and Candida species; format: cell-based; details: data not shown
From the text: We then analyzed if our T-cell clones might cross-react to other clinically relevant Aspergillus and Candida species such as A. flavus, A. nidulans, A. niger, A. terreus, C. glabrata and C. krusei because they also express proteins with some sequence similarity to A. fumigatus Crf1. […] Thus, p41-specific TH1 cells represent a core repertoire in antifungal immune responses being reactive to A. fumigatus but also to C. albicans, the second most important pathogenic fungus in HSCT patients.
Fungal strains A. fumigatus D141, A. nidulans FGSCA4, C. albicans SC5314 and clinical isolates A. fumigatus, A. terreus, A. flavus, A. niger, C. albicans, C. glabrata and C. krusei were provided by Sven Krappmann, Joachim Morschhäuser and Reno Frei.

[2] = system: DC transfected with Crf1 mRNA; assay: Peptide-specific T-cell clones stimulated with Crf1 mRNA-transfected DC (IFN-γ); format: cell-based, human
Experimental: (§1) T-cell cloning was performed as described in below. T-cell clones were stimulated either with mature peptide-pulsed (2.5 μg/ml) or Crf1 mRNA-transfected DC, immature DC incubated for 24 h with A. fumigatus cell extract (20 μg/ml) in the presence of cytokine maturation cocktail or immature DC incubated for 24 h with inactivated A. fumigatus or C. albicans fungus (multiplicity of infection 3) in a R:S ratio of 5:1.
For T-cell cloning 6×10^7 PBMC were stimulated overnight with 5 μg/ml peptide and 1 μg/ml CD40 antibody (HB14, Miltenyi Biotec). Cells were labelled with anti-CD154^+ microbeads and isolated by magnetic cell separation according to the manufacturers' instructions (Miltenyi Biotec). Selected cells were cultured with γ-irradiated autologous PBMC (ratio 1:50) and cytokines were supplemented as described above. On d14, T-cell clones were generated by limiting dilution in 96-well plates and expanded using the rapid expansion protocol previously described^50.
A. fumigatus Crf1 cDNA was cloned into the pGEM4Z vector (provided by Kris Thielemans) and in vitro transcribed using mMESSAGE mMACHINE T Ultra Kit (Ambion) according to the manufacturers' instructions. Crf1 was fused to the N-terminal domain of the invariant chain to enhance antigen presentation by MHC class II^51,52. Maturated DC were electroporated with 15 μg mRNA at 300V and 150 μF using the EQUIBIO EasyjecT Plus® apparatus (EQUIBIO) in serum-free medium (OptiMEM, Gibco)^41.

[3] = system: A. fumigatus cell extract; assay: Peptide-specific T-cell clones stimulated with DC incubated with A. fumigatus cell extract (IFN-γ); format: cell-based, Aspergillus fumigatus; details: extract 20 μg/ml, DC incubated 24 h
Experimental: as §1
Fungal extracts were generated as described^48 and protein content was measured by Bradford protein assay (Perbio Science) according to the manufacturers' instructions. For inactivated fungus Aspergillus conidia were inoculated in growth medium^49 and cultured for 0, 4, 8 or 12 h. Candida species were cultured for 24 h. Fungi were inactivated with 70% ethanol. Ethanol-inactivated fungi and extracts were validated for sterility by subculturing on Sabouraud dextrose agar.

[4] = system: T-cell lines of 7 donors with different MHC class II alleles; assay: Epitope mapping of Crf1 peptides with IFN-γ ELISPOT; format: cell-based, human; details: 7 donors tested, peptide-pulsed autologous DC
From the text: As the identification of potential protective fungal antigens is rather intricate due to the extensiveness of fungal genomes, we analyzed 6 different A. fumigatus recombinant proteins based on their previously reported immunogeneic reactivity in mice and humans^7,10. […] By contrast, GPI-anchored extracellular cell wall glucanase Crf1 and secreted protein peptidase induced high IFN-γ in 6 of 7 and 5 of 10 tested donors, respectively. The response was mediated by CD4^+ TH1 cells, as MHC class II blocking antibody nearly abrogated IFN-γ release (data not shown). Due to the broad response and the sequence similarity to the C. albicans orthologue Crh1, we focused in subsequent experiments on the protein Crf1. By epitope mapping of 7 healthy individuals with different MHC class II alleles, we identified 10 potential candidate epitopes (Table 1). Based on the results obtained by epitope mapping, the probability of antigen presentation by certain MHC class II alleles assessed by epitope prediction^11, previously reported immunogeneic reactivity^12 and sequence similarity to the C. albicans homologue Crh1, we then generated CD4^+ TH1 T-cell clones specific for the peptides p1, p22, p27, p41, p48, p59, p69 and p84 (FIG. 1a and Table 1).
A peptide library covering the complete Crf1 sequence consisting of 94 15-mer peptides overlapping by […] (aa) was divided into sub-pools of 10 peptides and 94 single peptides (p1-p94) (PANATecs). 3 11-mer peptides of p40/41 overlapping by 2aa ([…], […], HTYTIDWTKDA) were obtained from JPT Peptide Technologies.
For analysis of recombinant proteins and epitope mapping, T-cell lines were generated by incubation of 1×10^7 PBMC per well in 6-well cell culture plates with 5 μg/ml protein or peptide for 7d in the presence of 5 U/ml IL-2 (Proleukin, Chiron). Antigen specificity was analyzed by IFN-γ ELISA^42 after restimulation with autologous monocytes incubated overnight with 5 μg/ml protein in a responder to stimulator (R:S) ratio of 5:1. Epitope mapping was performed by IFN-γ ELISPOT^39 after stimulation with peptide-pulsed autologous DC at a R:S ratio of 10:1.

[5] = system: PBMC from additional donors; assay: Verification of HLA restriction by stimulation of PBMC from additional donors; format: cell-based, human; details: data not shown
From the text: To evaluate the utility of the Crf1 p41 epitope for potential clinical application, we defined the HLA restriction of Crf1 p41-specific CD4^+ T clones from different donors by stimulation with peptide-pulsed partially matched LCLs. […] As presentation of the Crf1 p41 peptide could also be mediated by other MHC class II alleles, we verified the HLA restriction by stimulation of PBMC from additional donors.

With “HTYTIDWTKDAVTWS (Peptide found in the Crf1 protein of Aspergillus fumigatus) [p41, Crf1 aa 161-175]” the “Cross-reactivity to other Aspergillus and Candida species” value [1] was “none of the Crf1 p27-, p41- and p59-specific T-cell clones showed any cross-reactivity to these fungi”, the “Response of peptide-specific CD4+ T-cell clones to endogenously processed antigen” value ([2]; all donors) was “All generated p41-specific CD4^+ T-cell clones were activated readily” and the “Number of T-cell clones reacting to Crf1 mRNA-transfected DC/number of peptide-specific T-cell clones” value (from here on “Number of T-cell clones reacting”) ([2]; donor 1) was 11/11. The “Number of T-cell clones reacting” value ([2]; donor 2) was 16/16, the “Number of T-cell clones reacting” value ([2]; donor 4) was 2/2 and the “Number of T-cell clones reacting” value ([2]; donor 7) was 4/4. The “Number of T-cell clones reacting” value ([2]; donor 10) was 3/3, the “Response of peptide-specific T-cell clones to A. fumigatus extract” value [3] was “All Crf1 p41-specific T-cell clones of all 5 donors” and the No. of responders [4] was 5. For the same sequence, the “Reaction of PBMC to the epitope” value ([5]; 5 donors lacking HLA-DRB1*03, 04 and 13) was “all 5 donors lacking HLA-DRB1*03, 04 and 13 MHC class II alleles did not” and the “Reaction of PBMC to the epitope” value ([5]; HLA-DRB1*03, 04 and 13 donors) was “All HLA-DRB1*03, 04 and 13 donors reacted to the Crf1 p41 epitope”.
